The source of these data is EP0406428B1, “PEPTIDE DERIVATIVES AND THEIR USE” (ASAHI GLASS COMPANY LTD., priority 1988, dated 1995).

Residues, ends and D or L forms follow the SMILES beside them.

One data set deals with blood platelet. The data set is described as follows: Decrease in number of blood platelet in surgical operation using artificial heart and lung. The settings on record: surgical operations using artificial heart and lung; control PBS. It is filed as in vivo. As to the method: The following Table indicates the results of examination of decrease in the number of the blood platelet, when 100 »g (per 1 kg of weight/minute) of [formula] was added for the purpose of the surgical operation. As the control, there was added PBS in place of peptide.

Another data set concerns trypsin. The data set is described as follows: Peptide map: decomposition with trypsin, HPLC analysis. It is filed as in vitro ADME. The settings on record: Tris-HCl 100 mM pH 8.5, 37°C, 24 hours, compared with linear peptide (GRGDSPA). As to the method: Peptide was dissolved in 10 mg/mℓ of distilled water. 20 »l of this solution was diluted with addition of 180 »l of a buffer solution (Tris-HCl, 100 mM, pH 8.5). To this diluted solution, 5 »l of a trip solution (1 mg/mℓ […], CaCl₂ 10 mM) was added, and the mixture was kept at a temperature of 37°C for 24 hours. Then, 10 »l of 2N HCl was added to this mixed solution to complete the reaction. Out of this reaction liquid, 50 »l was provided for high performance liquid chromatography HPLC for its analysis. Condition for Analysis HP HPLC: Waters Model 510 Column: YMC-ODS Detection: A₂₁₄ Elution: Liquid A - 0.1% aqueous solution of TFA Liquid B - 0.1% acetonitrile solution of TFA Linear concentration gradient of: 0% B → 30% B (0 min.) (30 min.) Figure 1 is a graphical representation showing the result of analysis of the cyclic peptide synthesized in accordance with this Example. Also, the linear peptide (GRGDSPA) synthesized in accordance with (14) above was tested under the same conditions as mentioned above. The result of its analysis is shin in Figure 2.

Turning to `C[C@@H]1NC(=O)[C@@H]2CCCN2C(=O)[C@H](CO)NC(=O)[C@H](CC(=O)O)NC(=O)CNC(=O)[C@H](CCCNC(=N)N)NC(=O)CNC1=O` [Example I00042] (cyclo(RGDSPAG)), in the data set on blood platelet, the “inhibiting aggregation of blood platelet” value is listed as “capability of inhibiting such aggregation at its low concentration”.

In the case of `C[C@@H]1NC(=O)[C@@H]2CCCN2C(=O)[C@H](CO)NC(=O)[C@H](CC(=O)O)NC(=O)CNC(=O)[C@H](CCCNC(=N)N)NC(=O)CNC1=O` [Example 1] (cyclo(RGDSPAG)), the “decomposition by treatment with trypsin” value with trypsin is on record as “difficult to undergo further decomposition”.
